The experiment has as its target Btk (Homo sapiens, UniProt Q06187). As to the kind of experiment: Btk TR-FRET kinase inhibition assay. The experiment is classed as biochemical. Conditions: pH 7.4, ATP at the Km for the kinase, 1 μM peptide substrate, [Btk]total=0.5 nM, read-out: Btk-TRFRET (Ki). The procedure: Suitable in vitro assays for measuring kinase activity and the inhibition thereof by compounds are known (e.g., see Kuzmic et al. Anal. Biochem. 2000, 286, 45-50).
The following protocol represents an assay for determination of inhibition of kinases under physiological conditions (pH 7.4). Kinase activity was determined using a time-resolved fluorescence resonance energy transfer (TR-FRET) methodology. Measurements were performed in a reaction volume of 50 μL using 96-well assay plates. Kinase enzyme, inhibitor, ATP (at the Km for the kinase), and 1 μM peptide substrate (Biotin-AVLESEEELYSSARQ-NH2) were incubated in a reaction buffer composed of 20 mM Tris, 50 mM NaCl, MgCl2 (5-25 mM depending on the kinase), 1 mM DTT, 0.1 mM EDTA, 0.01% bovine serum albumin, 0.005% Tween-20, and 10% DMSO at pH 7.4 for one hour. The reaction was quenched by the addition of 1.2 equivalents of EDTA (relative to Mg^2+) in 25 μL of 1× Lance buffer (Perkin-Elmer). Streptavidin-APC (Perkin-Elmer) and Eu-labeled p-Tyr100 antibody (Perkin-Elmer) in 1× Lance buffer were added in a 25 μL volume to give final concentrations of 100 nM and 2.5 nM, respectively, and the mixture was allowed to incubate for one hour. The TR-FRET signal was measured on a multimode plate reader with an excitation wavelength of 330 nm and detection wavelengths of 615 nm and 665 nm. Activity was determined by the ratio of the fluorescence at 665 nm to that at 615 nm. For each compound, enzyme activity was measured at various concentrations of compound. Negative control reactions were performed in the absence of inhibitor in replicates of six, and two no-enzyme controls were used to determine baseline fluorescence levels. Inhibition constants were obtained using the program BatchKi (Kuzmic et al. Anal. Biochem. 2000, 286, 45-50). IC50s were obtained according to this equation: IC50={Ki(app)/(1+[ATP]/Km^ATP)}+[E]total/2; for all kinases, [ATP]=Km^ATP, [Btk]total=0.5 nM and [Lck]total=6 nM.
Background: Time-resolved FRET reads energy transfer from a long-lived donor to a nearby acceptor.

Each structure is given as a SMILES string. Where only a bound is given, the exact number is not on record here.

Btk, sequence (Q06187 whole entry): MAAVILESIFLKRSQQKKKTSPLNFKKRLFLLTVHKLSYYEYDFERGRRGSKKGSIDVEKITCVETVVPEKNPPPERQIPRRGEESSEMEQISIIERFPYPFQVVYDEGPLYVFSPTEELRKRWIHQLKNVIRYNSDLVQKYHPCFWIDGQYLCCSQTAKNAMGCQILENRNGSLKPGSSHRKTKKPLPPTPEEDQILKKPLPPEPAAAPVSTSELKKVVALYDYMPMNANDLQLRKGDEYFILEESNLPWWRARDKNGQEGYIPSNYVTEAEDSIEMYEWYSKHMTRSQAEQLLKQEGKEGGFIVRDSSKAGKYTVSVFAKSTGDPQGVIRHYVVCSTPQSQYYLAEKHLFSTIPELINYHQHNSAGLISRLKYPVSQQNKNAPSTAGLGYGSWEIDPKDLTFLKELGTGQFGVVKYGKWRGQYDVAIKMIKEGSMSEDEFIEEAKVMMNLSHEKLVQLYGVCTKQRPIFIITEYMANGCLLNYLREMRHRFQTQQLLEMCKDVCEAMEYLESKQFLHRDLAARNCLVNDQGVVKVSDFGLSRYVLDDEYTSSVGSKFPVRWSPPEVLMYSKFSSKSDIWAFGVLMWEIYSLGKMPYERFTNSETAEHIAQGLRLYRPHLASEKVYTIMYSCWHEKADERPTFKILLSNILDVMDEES

With `Cc1cc(F)ccc1Nc1nc2ccc3c(C)c(/C=C/CNC(=O)C4CCP(C)(=O)CC4)[nH]c(=O)c3c2n1C` (mixture of isomers) [Compound 15, 2-(4-fluoro-2-methylphenylamino)-1,6-dimethyl-7-{3-[(1-oxo-1-methyl-1λ^5-phosphinan-4-yl)-carbonylamino]propenyl}-1,8-dihydro-imidazo[4,5-h]isoquinolin-9-one], the Ki is less than 100 nM.

As for `Cc1cc(F)ccc1Nc1nc2ccc3c(C)c(/C=C/CN4CCP(C)(=O)CC4)[nH]c(=O)c3c2n1C` [Compound 1, 2-(4-fluoro-2-methylphenylamino)-1,6-dimethyl-7-[3-(4-methyl-4-oxo-4λ^5[1,4]azaphosphinan-1-yl)-propenyl]-1,8-dihydro-imidazo[4,5-h]isoquinolin-9-one], the inhibition constant (Ki) was less than 100 nM.

In the case of `Cc1c(C=CCN2CCP(C)(=O)CC2)[nH]c(=O)c2c1ccc1nc(Nc3c(Cl)cccc3Cl)n(C)c12` [Compound 2, 2-(2,6-dichloro-phenylamino)-1,6-dimethyl-7-[3-(4-methyl-4-oxo-4λ^5[1,4]azaphosphinan-1-yl)-propenyl]-1,8-dihydro-imidazo[4,5-h]isoquinolin-9-one], the inhibition constant Ki was less than 100 nM.

In the case of `Cc1cc(F)ccc1Nc1nc2ccc3c(C)c(/C=C/CN4CCP(=O)(c5ccccc5)CC4)[nH]c(=O)c3c2n1C` [Compound 3, 2-(4-fluoro-2-methylphenylamino)-1,6-dimethyl-7-[3-(4-oxo-4-phenyl-4λ^5-[1,4]azaphosphinan-1-yl)-propenyl]-1,8-dihydro-imidazo[4,5-h]isoquinolin-9-one], the Ki was less than 100 nM.

For the compound `Cc1ccc(F)cc1Nc1nc2ccc3c(C)c(C=CCN4CCP(=O)(c5ccccc5)CC4)[nH]c(=O)c3c2n1C` [Compound 4, 2-(3-fluoro-6-methylphenylamino)-1,6-dimethyl-7-[3-(4-oxo-4-phenyl-4λ^5-[1,4]azaphosphinan-1-yl)-propenyl]-1,8-dihydro-imidazo[4,5-h]isoquinolin-9-one], the Ki is less than 100 nM.

In the case of `Cc1c(/C=C/CN2CCP(=O)(c3ccccc3)CC2)[nH]c(=O)c2c1ccc1nc(Nc3c(Cl)cccc3Cl)n(C)c12` [Compound 5, 2-(2,6-dichlorophenylamino)-1,6-dimethyl-7-[3-(4-oxo-4-phenyl-4λ^5-[1,4]azaphosphinan-1-yl)-propenyl]-1,8-dihydro-imidazo[4,5-h]isoquinolin-9-one], the Ki is less than 100 nM.

For the compound `Cc1cc(Cl)cc(Cl)c1Nc1nc2ccc3c(C)c(C=CCN4CCP(=O)(c5ccccc5)CC4)[nH]c(=O)c3c2n1C` [Compound 6, 2-(2,4-dichloro-6-methylphenylamino)-1,6-dimethyl-7-[3-(4-oxo-4-phenyl-4λ^5-[1,4]azaphosphinan-1-yl)-propenyl]-1,8-dihydro-imidazo[4,5-h]isoquinolin-9-one], the Ki was less than 100 nM.

Consider `Cc1ccc(F)cc1Nc1nc2ccc3c(C)c(C=CC(=O)N4CCP(=O)(c5ccccc5)CC4)[nH]c(=O)c3c2n1C` [Compound 7, 2-(3-fluoro-6-methylphenylamino)-1,6-dimethyl-7-{2-[(4-oxo-4-phenyl-4λ^5-[1,4]azaphosphinan-1-yl)-carbonyl]ethenyl}-1,8-dihydro-imidazo[4,5-h]isoquinolin-9-one], for which the Ki lay within 100 to 1000 nM.

As to `Cc1cc(Cl)cc(Cl)c1Nc1nc2ccc3c(C)c(CCCN4CCP(=O)(c5ccccc5)CC4)[nH]c(=O)c3c2n1C` [Compound 8, 2-(2,4-dichloro-6-methylphenylamino)-1,6-dimethyl-7-[3-(4-oxo-4-phenyl-4λ^5-[1,4]azaphosphinan-1-yl)-propyl]-1,8-dihydro-imidazo[4,5-h]isoquinolin-9-one], the Ki was in the range of 100 to 1000 nM.

Regarding `Cc1cc(F)ccc1Nc1nc2ccc3c(C)c(CCCN4CCP(=O)(c5ccccc5)CC4)[nH]c(=O)c3c2n1C` [Compound 9, 2-(4-fluoro-2-methylphenylamino)-1,6-dimethyl-7-[3-(4-oxo-4-phenyl-4λ^5-[1,4]azaphosphinan-1-yl)-propyl]-1,8-dihydro-imidazo[4,5-h]isoquinolin-9-one], the Ki fell in the range of 100 to 1000 nM.

For `Cc1cc(F)ccc1Nc1nc2ccc3c(C)c(C=CCN4CCP(=O)(c5ccc(F)cc5)CC4)[nH]c(=O)c3c2n1C` [Compound 10, 2-(4-fluoro-2-methylphenylamino)-1,6-dimethyl-7-[3-(4-oxo-4-(4-fluorophenyl)-4λ^5-[1,4]azaphosphinan-1-yl)-propenyl]-1,8-dihydro-imidazo[4,5-h]isoquinolin-9-one], the Ki was less than 100 nM.

As to `COc1ccc(P2(=O)CCN(CC=Cc3[nH]c(=O)c4c(ccc5nc(Nc6cc(F)ccc6C)n(C)c54)c3C)CC2)cc1` [Compound 11, 2-(3-fluoro-6-methylphenylamino)-1,6-dimethyl-7-[3-(4-oxo-4-(4-methoxyphenyl)-4λ^5-[1,4]azaphosphinan-1-yl)-propenyl]-1,8-dihydro-imidazo[4,5-h]isoquinolin-9-one], the Ki was less than 100 nM.

With `Cc1cc(F)ccc1Nc1nc2ccc3c(C)c(/C=C/CN4CCP(=O)(Cc5ccc(F)cc5)CC4)[nH]c(=O)c3c2n1C` [Compound 12, 2-(4-fluoro-2-methylphenylamino)-1,6-dimethyl-7-{3-[4-(4-fluorophenylmethyl)-4-oxo-4λ^5-[1,4]azaphosphinan-1-yl]-propenyl}-1,8-dihydro-imidazo[4,5-h]isoquinolin-9-one], the inhibition constant (Ki) is less than 100 nM.

Take `Cc1cc(F)ccc1Nc1nc2ccc3c(C)c(/C=C/CN4CCP(=O)(CC5CC5)CC4)[nH]c(=O)c3c2n1C` [Compound 13, 2-(4-fluoro-2-methylphenylamino)-1,6-dimethyl-7-{3-[4-(cyclopropylmethyl)-4-oxo-4λ^5-[1,4]azaphosphinan-1-yl]-propenyl}-1,8-dihydro-imidazo[4,5-h]isoquinolin-9-one]: the Ki was less than 100 nM.

Regarding `Cc1cc(F)ccc1Nc1nc2ccc3c(C)c(/C=C/CN4CCP(=O)(C5CC5)CC4)[nH]c(=O)c3c2n1C` [Compound 14, 2-(4-fluoro-2-methylphenylamino)-1,6-dimethyl-7-{3-[4-(cyclopropyl)-4-oxo-4λ^5-[1,4]azaphosphinan-1-yl]-propenyl}-1,8-dihydro-imidazo[4,5-h]isoquinolin-9-one], the inhibition constant (Ki) was less than 100 nM.

With `Cc1cc(F)ccc1Nc1nc2ccc3c(C)c(C=CCNC(=O)C4CCP(=O)(c5ccccc5)CC4)[nH]c(=O)c3c2n1C` (stereo not drawn) [Compound 16, 2-(4-fluoro-2-methylphenylamino)-1,6-dimethyl-7-{3-[(1-oxo-1-trans-phenyl-1λ^5-phosphinan-4-yl)-carbonylamino]propenyl}-1,8-dihydro-imidazo[4,5-h]isoquinolin-9-one], the Ki was less than 100 nM.

On to `Cc1cc(F)ccc1Nc1nc2ccc3c(C)c(/C=C/CNC(=O)[C@H]4CC[P@@](=O)(c5ccccc5)CC4)[nH]c(=O)c3c2n1C` [Compound 17, 2-(4-fluoro-2-methyl-phenylamino)-1,6-dimethyl-7-{3-[(1-oxo-1-cis-phenyl-1λ^5-phosphinan-4-yl)-carbonylamino]propenyl}-1,8-dihydro-imidazo[4,5-h]isoquinolin-9-one], for which the Ki is less than 100 nM.

On to `Cc1c(C=CCN2CCN(c3ccccc3)CC2)[nH]c(=O)c2c1ccc1nc(Nc3c(Cl)cccc3Cl)n(C)c12` [Compound 18, 2-(2,6-dichlorophenylamino)-1,6-dimethyl-7-[3-(N-phenylpiperazin-1-yl)-propenyl]-1,8-dihydro-imidazo[4,5-h]isoquinolin-9-one], for which the Ki is less than 100 nM.

For `Cc1cc(F)ccc1Nc1nc2ccc3c(C)c(C=CCN4CCN(c5ccccc5)CC4)[nH]c(=O)c3c2n1C` [Compound 19, 2-(4-fluoro-2-methylphenylamino)-1,6-dimethyl-7-[3-(N-phenylpiperazin-1-yl)-propenyl]-1,8-dihydro-imidazo[4,5-h]isoquinolin-9-one], the Ki was less than 100 nM.

On to `Cc1cc(F)ccc1Nc1nc2ccc3c(C)c(C=CCN4CCN(c5ccc(Cl)cc5)CC4)[nH]c(=O)c3c2n1C` [Compound 20, 2-(4-fluoro-2-methylphenylamino)-1,6-dimethyl-7-[3-(N-(4-chlorophenyl)-piperazin-1-yl)-propenyl]-1,8-dihydro-imidazo[4,5-h]isoquinolin-9-one], for which the Ki is less than 100 nM.

Regarding `CC(=O)N1CCN(CC=Cc2[nH]c(=O)c3c(ccc4nc(Nc5ccc(F)cc5C)n(C)c43)c2C)CC1` [Compound 21, 2-(4-fluoro-2-methylphenylamino)-1,6-dimethyl-7-[3-(N-methylcarbonylpiperazin-1-yl)-propenyl]-1,8-dihydro-imidazo[4,5-h]isoquinolin-9-one], the Ki is less than 100 nM.

With `Cc1cc(F)ccc1Nc1nc2ccc3c(C)c(C=CCN4CCN(C(=O)c5ccccc5)CC4)[nH]c(=O)c3c2n1C` [Compound 22, 2-(4-fluoro-2-methylphenylamino)-1,6-dimethyl-7-[3-(N-phenylcarbonylpiperazin-1-yl)-propenyl]-1,8-dihydro-imidazo[4,5-h]isoquinolin-9-one], the Ki is less than 100 nM.

For orientation: Ki means the equilibrium dissociation constant of an inhibitor or competing ligand from its target.

The values above are taken from patent US8067395B2, “Inhibitors of tyrosine kinases and uses thereof” (Pharmacyclics, Inc., priority 2006, dated 2011).
